We go through four compounds from US20250163119A1, “COMPOUNDS FOR THE TREATMENT OF DIABETES OR OBESITY” (Eli Lilly and Company, priority 2023, published 2025).

*1 amine or outer side, *2 acyl side, *3 side chain or, on linkers, in order; H or OH if unused. Where a SMILES comes first, the peptide text is derived from it. Side-chain parts run from the residue outwards. [ ]: non-standard residue; d: D form. The star is where a group is joined. C20 diacid = O=C(O)CCCCCCCCCCCCCCCCCCC(=O)*; γGlu = O=C(O)[C@H](CCC(=O)[*:2])N[*:1]; εLys = N[C@@H](CCCCN[*:1])C(=O)[*:2]; αMeL = CC(C)C[C@](C)(N)C(=O)O; Dap = NC[C@H](N)C(=O)O; AEEA = NCCOCCOCC(=O)O; Aib = CC(C)(N)C(=O)O

The assay deals with T1, human CRHR2 (Homo sapiens, UniProt Q13324).
T1 construct: expressed in transfected cells
T1 sequence (Q13324 1-438 isoform Q13324-2): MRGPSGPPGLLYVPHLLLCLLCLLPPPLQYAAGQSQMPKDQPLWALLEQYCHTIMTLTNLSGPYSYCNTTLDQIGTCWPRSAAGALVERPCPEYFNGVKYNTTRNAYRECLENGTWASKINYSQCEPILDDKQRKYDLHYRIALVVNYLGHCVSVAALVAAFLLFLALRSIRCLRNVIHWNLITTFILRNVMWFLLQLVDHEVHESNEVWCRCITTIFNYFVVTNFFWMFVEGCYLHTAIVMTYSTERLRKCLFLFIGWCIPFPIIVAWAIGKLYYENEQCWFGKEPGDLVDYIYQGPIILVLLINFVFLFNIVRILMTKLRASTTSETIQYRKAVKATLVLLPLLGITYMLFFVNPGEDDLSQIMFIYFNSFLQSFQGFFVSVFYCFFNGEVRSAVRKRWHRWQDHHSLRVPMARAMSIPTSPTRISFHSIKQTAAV
The assay can be described thus: Human CRHR2 cAMP assay (HTRF) in HEK293 cells stably expressing human CRHR2. It counts as cell-based. The following applies: HEK293 cells overexpressing human CRHR2; relative EC50, maximum 10 nM human UCN2; mean ± SE; read-out: hCRHR2 cAMP EC50 (pM, ± SE). How it is done:
The corticotropin-releasing hormone (CRH) receptor 1 and 2 (CRHR1 and CRHR2) are GPCRs that were functionally coupled to Gs proteins. Stimulation of these receptors results in an increased production of intracellular cAMP, which can be detected using standard in vitro technologies. In vitro activity of peptides was measured by the amount of cAMP formed in human CRHR1 and CRHR2 overexpressed cells.
Human CRHR1 and CRHR2 receptors were stably expressed in human embryonic kidney cells (HEK293) under control of a pcDNA expression vector. The HEK293 cell line was cultured in DMEM 1× (Gibco, 93-0152DK) supplemented with 10% FBS, 1 mM sodium pyruvate, 1×MEM NEAA, 1× GlutaMAX and 10 mM HEPES. The plasmids of human CRHR1-pQCXIP (T7364) and human CRHR2b-R2683puro (T16761) DNA were transfected into HEK293 cells using Lipo fectAMINE 3000 Transfection reagent (Invitrogen, L3000001). After 20 days under selection, the mRNA levels from different clones were measured to confirm the expression of human CRHR1 and CRHR2 genes. To determine the function of over-expressed CRHR cells, the intracellular cAMP levels in response to human UCN1 and UCN2 were measured and compared to the expression of CRHR1 and CRHR2 mRNA in each clone.
Human CRHR1 cells were cultured in DMEM 1× (Gibco, 93-0152DK) supplemented with 10% FBS, 1 mM sodium pyruvate, 1×MEM NEAA, 1×GlutaMAX, 10 mM HEPES, and 800 μg/ml G418. Human CRHR2 cells were cultured at the same media (DMEM 1×, 10% FBS, 1 mM sodium pyruvate, 1×MEM NEAA, 1×GlutaMAX, 10 mM HEPES) in the presence of 0.5 ug/mL puromycin. Cultured cells were grown to 90% confluency and harvested. The cells were frozen at 10×10e6/ml in a mixture of […] fetal bovine serum plus 7% DMSO and stored in liquid nitrogen until use.
On the day of the assay, the frozen cells were thawed and diluted in assay buffer (Phenol Red free MEM (Corning, 17-305-CV, lot #32121010), 0.1% Casein (Sigma C4765, lot #SLCG2120), 5 mM HEPES pH 7.4 containing 0.25 mM IBMX). 10 ul of human CRHR1 cells (25,000 cells) or 10 μL of human CRHR2 cells (5,000 cells) were dispensed into each well of white poly-D-lysine coated 384-well plates (Corning cat #354661). Test compounds diluted in DMSO were added (200 nL/well) in a 1:3 dilution series using ECHO acoustic liquid handler (Beckman). The mixture of cells and test compounds were incubated at 37° C. for 1 hour for the hCRHR1 plate, while the CRHR2 plates were incubated at room temperature for 30 min.
The amount of intracellular cAMP was quantitated using HTRF technology (Homogeneous Time Resolved Fluorescence; Cisbio) as per vendor instructions. Briefly, 10 uL CAMP-d2 conjugate and 10 uL anti-CAMP-cryptate conjugate in lysis buffer were incubated with the treated cells at room temperature for 60 min. The HTRF signal was immediately detected using an Envision plate reader (Perkin-Elmer) to calculate the ratio of fluorescence at 665 to 620 nm.
Raw fluorescence data for concentration curves of the peptides in Table 2 and Table 3 were converted to cAMP amount (pmol/well) using a cAMP standard curve generated for each experiment.

For `CC[C@H](C)[C@H](NC(C)=O)C(=O)N[C@H](C(=O)N[C@H](C(=O)N[C@@H](CO)C(=O)N[C@@](C)(CC(C)C)C(=O)N[C@@H](CC(=O)O)C(=O)N[C@@H](C(=O)N1CCC[C@H]1C(=O)N[C@H](C(=O)NCC(=O)N[C@@](C)(CC(C)C)C(=O)N[C@@H](CC(C)C)C(=O)N[C@@H](CCC(N)=O)C(=O)N[C@H](C(=O)N[C@@H](CCCCN)C(=O)N[C@@H](CC(C)C)C(=O)N[C@@H](CCC(=O)O)C(=O)N[C@@H](CCC(N)=O)C(=O)N[C@@H](CCC(=O)O)C(=O)N[C@@H](CCCNC(=N)N)C(=O)N[C@@H](C)C(=O)N[C@@H](CCC(=O)O)C(=O)N[C@@H](CCCCN)C(=O)N[C@@H](C)C(=O)N[C@@H](CCCNC(=N)N)C(=O)N[C@@H](CCC(N)=O)C(=O)N[C@@H](CCC(N)=O)C(=O)N[C@@H](C)C(=O)N[C@@H](CCCCNC(=O)[C@@H](N)CCCCNC(=O)CC[C@H](NC(=O)COCCOCCNC(=O)CCCCCCCCCCCCCCCCCCC(=O)O)C(=O)O)C(=O)N[C@@H](CCC(=O)O)C(=O)N[C@@H](CC(N)=O)C(=O)N[C@H](C(=O)N[C@@H](CCC(=O)O)C(=O)N[C@H](C(=O)N[C@@H](CC(C)C)C(=O)N[C@@H](C)C(=O)N[C@@H](CCC(N)=O)C(=O)N[C@H](C(N)=O)C(C)C)[C@@H](C)CC)[C@@H](C)O)[C@@H](C)CC)[C@@H](C)O)C(C)C)[C@@H](C)O)C(C)C` [SEQ ID NO: 35, Ac-IVTS αMeL D (D-Val) PTG αMeL LQIKLEQERAEKARQQAK(ϵK-γE-(2-[2-(2-Amino-ethoxy)-ethoxy]-acetyl)-CO-(CH2)18-CO2H)ENTEILAQV-NH2] (Ac-IVTS[αMeL]D[dV]PTG[αMeL]LQIKLEQERAEKARQQAK([εLys-γGlu-AEEA-C20 diacid])ENTEILAQV-NH2), the concentration for a half-maximal effect (EC50) amounted to 5.3 ± 0.9 pM. Regarding `CC[C@H](C)[C@H](NC(C)=O)C(=O)N[C@H](C(=O)N[C@H](C(=O)N[C@@H](CO)C(=O)N[C@@](C)(CC(C)C)C(=O)N[C@@H](CC(=O)O)C(=O)N[C@@H](C(=O)N1CCC[C@H]1C(=O)N[C@H](C(=O)NCC(=O)N[C@@](C)(CC(C)C)C(=O)N[C@@H](CC(C)C)C(=O)N[C@@H](CCC(N)=O)C(=O)N[C@H](C(=O)N[C@@H](CCCCN)C(=O)N[C@@H](CC(C)C)C(=O)N[C@@H](CCC(=O)O)C(=O)N[C@@H](CCC(N)=O)C(=O)N[C@@H](CCC(=O)O)C(=O)N[C@@H](CCCNC(=N)N)C(=O)N[C@@H](C)C(=O)N[C@@H](CCC(=O)O)C(=O)N[C@@H](CCCCN)C(=O)N[C@@H](C)C(=O)N[C@@H](CCCNC(=N)N)C(=O)N[C@@H](CCC(N)=O)C(=O)N[C@@H](CCC(N)=O)C(=O)N[C@@H](C)C(=O)N[C@@H](CCCCNC(=O)CC[C@H](NC(=O)COCCOCCNC(=O)[C@@H](N)CCCCNC(=O)CCCCCCCCCCCCCCCCCCC(=O)O)C(=O)O)C(=O)N[C@@H](CCC(=O)O)C(=O)N[C@@H](CC(N)=O)C(=O)N[C@H](C(=O)N[C@@H](CCC(=O)O)C(=O)N[C@H](C(=O)N[C@@H](CC(C)C)C(=O)N[C@@H](C)C(=O)N[C@@H](CCC(N)=O)C(=O)N[C@H](C(N)=O)C(C)C)[C@@H](C)CC)[C@@H](C)O)[C@@H](C)CC)[C@@H](C)O)C(C)C)[C@@H](C)O)C(C)C` [SEQ ID NO: 36, Ac-IVTS αMeL D (D-Val) PTG αMeL LQIKLEQERAEKARQQAK(γE-(2-[2-(2-Amino-ethoxy)-ethoxy]-acetyl)-ϵK-CO-(CH2)18-CO2H)ENTEILAQV-NH2] (Ac-IVTS[αMeL]D[dV]PTG[αMeL]LQIKLEQERAEKARQQAK([γGlu-AEEA-εLys-C20 diacid])ENTEILAQV-NH2), the EC50 worked out at 4.4 ± 0.4 pM.

Consider `CC[C@H](C)[C@H](NC(C)=O)C(=O)N[C@H](C(=O)N[C@H](C(=O)N[C@@H](CO)C(=O)N[C@@](C)(CC(C)C)C(=O)N[C@@H](CC(=O)O)C(=O)N[C@@H](C(=O)N1CCC[C@H]1C(=O)N[C@H](C(=O)NCC(=O)N[C@@](C)(CC(C)C)C(=O)N[C@@H](CC(C)C)C(=O)N[C@@H](CCC(N)=O)C(=O)N[C@H](C(=O)N[C@@H](CCCCN)C(=O)N[C@@H](CC(C)C)C(=O)N[C@@H](CCC(=O)O)C(=O)N[C@@H](CCC(N)=O)C(=O)N[C@@H](CCC(=O)O)C(=O)N[C@@H](CCCNC(=N)N)C(=O)N[C@@H](C)C(=O)N[C@@H](CCC(=O)O)C(=O)N[C@@H](CCCCN)C(=O)N[C@@H](C)C(=O)N[C@@H](CCCNC(=N)N)C(=O)N[C@@H](CCC(N)=O)C(=O)N[C@@H](CCC(N)=O)C(=O)N[C@@H](C)C(=O)N[C@@H](CCCCNC(=O)CC[C@H](NC(=O)[C@@H](N)CCCCNC(=O)COCCOCCNC(=O)CCCCCCCCCCCCCCCCCCC(=O)O)C(=O)O)C(=O)N[C@@H](CCC(=O)O)C(=O)N[C@@H](CC(N)=O)C(=O)N[C@H](C(=O)N[C@@H](CCC(=O)O)C(=O)N[C@H](C(=O)N[C@@H](CC(C)C)C(=O)N[C@@H](C)C(=O)N[C@@H](CCC(N)=O)C(=O)N[C@H](C(N)=O)C(C)C)[C@@H](C)CC)[C@@H](C)O)[C@@H](C)CC)[C@@H](C)O)C(C)C)[C@@H](C)O)C(C)C` [SEQ ID NO: 37, Ac-IVTS αMeL D (D-Val) PTG αMeL LQIKLEQERAEKARQQAK(γE-ϵK-(2-[2-(2-Amino-ethoxy)-ethoxy]-acetyl)-CO-(CH2)18-CO2H)ENTEILAQV-NH2] (Ac-IVTS[αMeL]D[dV]PTG[αMeL]LQIKLEQERAEKARQQAK([γGlu-εLys-AEEA-C20 diacid])ENTEILAQV-NH2), for which the EC50 came out at 5 ± 0.2 pM. In the case of “{C20 diacid}-[Dap][AEEA][γGlu]GSPSIVTS[αMeL]DVPT[Aib][αMeL]LEKILEQERAEKARQQATEAAEILAQV-NH2 [SEQ ID NO: 52]”, the EC50 is 6.6 ± 0.5 pM.
